{"source": "paper PMC7694207", "about": "“Functional Characterization of the N-Acetylmuramyl-L-Alanine Amidase, Ami1, from Mycobacterium abscessus” (Cells, 2020)", "key": {"Ami1Mab [1]": {"molecular_target": "T1, Ami1Mab (Mycobacteroides abscessus, UniProt B1MFL7)", "T1 construct": "gene MAB_0318c; first 40 residues (signal peptide) removed; pET151 N-terminal tag cut by TEV; E. coli BL21(DE3) pRARE2; zinc enzyme", "T1 sequence (B1MFL7 entry or part of it)": "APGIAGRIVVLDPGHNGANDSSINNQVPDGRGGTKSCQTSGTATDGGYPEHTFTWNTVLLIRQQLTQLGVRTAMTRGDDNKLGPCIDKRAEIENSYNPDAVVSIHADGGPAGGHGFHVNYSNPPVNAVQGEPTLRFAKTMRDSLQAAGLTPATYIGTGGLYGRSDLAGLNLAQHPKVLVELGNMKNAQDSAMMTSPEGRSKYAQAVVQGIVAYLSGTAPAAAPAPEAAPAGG", "assay": "X-ray co-crystal structure, […] Å", "assay_type": "binding", "conditions": "co-crystallized with 5 mM dipeptide; active site near Zn2+"}, "Ami1Mab [2]": {"molecular_target": "T1, Ami1Mab", "assay": "TLC-based muramyl-dipeptide hydrolysis assay", "assay_type": "biochemical", "conditions": "substrate MDP; PBS; 37 °C; compound numbering as in Results"}, "Ami1Mab [3]": {"molecular_target": "T1, Ami1Mab", "assay": "TLC-based muramyl-dipeptide hydrolysis assay", "assay_type": "biochemical", "conditions": "substrate MDP; PBS; 37 °C; compound numbering as in Results", "remark": "listed apart in the source"}, "Ami1Mab [4]": {"molecular_target": "T1, Ami1Mab", "assay": "TLC-based muramyl-dipeptide hydrolysis assay", "assay_type": "biochemical", "conditions": "substrate MDP; PBS; 37 °C"}, "Ami1Mtb": {"molecular_target": "T2, Ami1Mtb (Mycobacterium tuberculosis, UniProt I6Y4D2)", "T2 construct": "gene Rv3717", "T2 sequence (I6Y4D2 whole entry, looked up)": "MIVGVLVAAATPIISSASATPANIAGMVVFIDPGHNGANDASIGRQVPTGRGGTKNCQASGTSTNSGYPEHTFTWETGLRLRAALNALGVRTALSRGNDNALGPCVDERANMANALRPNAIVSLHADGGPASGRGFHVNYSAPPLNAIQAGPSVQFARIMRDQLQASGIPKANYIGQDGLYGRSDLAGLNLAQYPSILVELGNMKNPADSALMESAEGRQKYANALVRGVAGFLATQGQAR", "assay_type": "biochemical"}, "Ami1Mab [5]": {"molecular_target": "T1, Ami1Mab", "assay": "TLC hydrolysis assay, ninhydrin", "assay_type": "biochemical", "conditions": "PBS, 37 °C, 30 min; Zn2+-dependent"}}, "note": "Non-standard residues stand in square brackets, D forms with d. Residues, ends and D or L forms follow the SMILES beside them.", "data": [{"smiles": "C[C@H](N)C(=O)N[C@H](CCC(=O)O)C(N)=O", "note": "[L-Ala-D-IsoGln] (H-Ala-[dE]-NH2)", "values": [{"measurement": "X-ray co-crystal structure, 1.7 Å", "setting": "Ami1Mab [1]", "result": "The co-crystal structure of Ami1Mab bound to L-Ala-D-IsoGln was also solved"}]}, {"smiles": "Nc1ccccc1-c1nn[nH]n1", "note": "[compound 2, 2-(1H-1,2,3,4-tetrazol-5-yl)aniline]", "values": [{"measurement": "inhibitory activity starting at", "setting": "Ami1Mab [2]", "result": 800, "unit": "µM"}]}, {"smiles": "O=C(O)c1ccnc(Cl)c1C(=O)O", "note": "[compound 3, 2-chloropyridine-3,4-dicarboxylic acid]", "values": [{"measurement": "inhibitory effect, starting between", "setting": "Ami1Mab [3]", "result": "250 to 500", "unit": "µM"}]}, {"smiles": "O=C(O)c1coc2ccnc(Cl)c12", "note": "[compound 1, 4-chlorofuro [3,2-c]pyridine-3-carboxylic acid]", "values": [{"measurement": "inhibitory effect, starting at", "setting": "Ami1Mab [4]", "result": "150 to 200", "unit": "µM"}]}, {"smiles": "CC(=O)N[C@H]1C(O)O[C@H](CO)[C@@H](O)[C@@H]1O[C@H](C)C(=O)N[C@@H](C)C(=O)N[C@H](CCC(=O)O)C(N)=O", "note": "(stereo partly drawn) [muramyl-dipeptide]", "values": [{"measurement": "TLC hydrolysis assay, ninhydrin", "setting": "Ami1Mtb", "result": "Activity of both Ami1Mab and Ami1Mtb is inhibited after incubation with EDTA"}, {"measurement": "TLC hydrolysis assay, ninhydrin", "setting": "Ami1Mab [5]", "result": "MDP was rapidly hydrolyzed by Ami1Mab"}]}]}
